Patent publication US8957087B2, “Heterocyclic substituted acardite derivate and application thereof” (Jiangsu Provincial Institute of Materia Medica Co., Ltd., priority 2009, dated 2015)
Several values for one entry are separate records, joined by “and”; a condition that tells them apart may be missing. Identical values can stand only once. Like-named read-outs stand apart in the source and are kept apart here. Marks after values point to notes of the source that are not given here.

Legend:
[1] = system: lung cancer cell A549; assay: Effects on the adhesive ability of lung cancer cell A549; assay type: cell-based, human; conditions: Final concentration 1 x 1.0*10^(−5) mol/L
In short: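 A549 cells in 1640 medium with 10% FBS tested for adhesion to gelatin versus poly-lysine (PLL), with CCK8 used as read-out. Inhibition rate derived from the gelatin/PLL adhesion OD ratio of dosed cells relative to the undosed cell group.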

[2] = system: mice S180 sarcoma; assay: Experimental therapeutic action on S180 sarcoma mice; conditions: for Tumor weight x ± SD: day 10; for Tumor growth inhibition rate (%): mice S180 sarcoma, 60 mg/kg orally for 9 days
Experimental: (§1) Experimental therapeutic action of the compound in the present invention on S180 sarcoma mice
(§2) 18-25 g female ICR mice and well grown 7-11 day old mice sarcoma S180 tumor seeds were selected, and the seeds were inoculated into the subcutaneous at the right axillary. After inoculated 24 hours, these mice were randomly divided into cages and orally administrated 60 mg/kg for 9 days. On 10 day, the animals were killed and weighed, and the tumor weights were weighed to calculate average tumor weight in each group, followed by calculating the tumor inhibition rate according to the following formula and T test.

[3] = system: human umbilical vein endothelial cell HUVEC; assay: Lumen formation ability of HUVEC (Matrigel method); assay type: cell-based; conditions: Final concentration 1 x 1.0*10^(−5) mol/L
In short: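 HUVEC at passage 3–5, cultured in M199 at 37° C under 5% CO2, were plated on Matrigel with compound. Spontaneous lumen formation was scored as an inhibition rate.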

[4] = system: human lung cancer A549 transplantation tumor; assay type: in vivo; conditions: BALB/cA nude mice; 60 mg/kg, 6 times every week for 3 weeks; Sorafenib oral 60 mg/kg
In short: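 Female BALB/cA nude mice, 35-40 days old, bearing A549 human lung cancer transplants; 6 per treatment group, 12 saline controls. Compound given at 60 mg/kg, 6 times weekly for 3 weeks, then observed one week.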

[5] = system: mice S180 sarcoma; conditions: mouse, in vivo, 60 mg/kg
Experimental: as §1, §2

[6] = system: human high-metastic lung cancer cell 95D; assay: Inhibition of human high-metastic lung cancer cell 95D migration (Boyden Chamber Transwell); assay type: cell-based; conditions: Final concentration 1 x 1.0*10^(−5) mol/L
In short: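 Boyden Transwell migration (8 μm pores) of 95D cells, RPMI-1640 with 10% FBS versus serum-free medium; inhibition rate calculated.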

[7] = system: human umbilical vein endothelial cell HUVEC; assay: Growth of human umbilical vein endothelial cell HUVEC by CCK8 method; assay type: cell-based; conditions: Final concentration 1 x 1.0*10^(−5) mol/L
In short: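 HUVEC cells were grown in 1640 medium with 10% FBS, and growth was measured by the CCK8 method. OD values of drug and control wells were corrected by subtracting the blank-well OD.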

[8] = system: human lung cancer cell strain A549; assay: MTT assay, inhibition of growth of human lung cancer cell strain A549; assay type: cell-based
In short: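 A549 cells grown in F12 with 10% FBS; growth read by MTT, inhibition rate from blank-corrected OD of drug wells versus control wells.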

[9] = system: Raf-1(truncated); assay: Raf-1 inhibitor screening by chemoluminescence method; assay type: biochemical; conditions: Final concentration 1 x 1.0*10^−5 mol/ml
Excerpt: 1. Inhibitory activity of the compound of the present invention on raf kinase
Raf-1 inhibitor screening by chemoluminescence method
Westernblot electrophoresis apparatus Rotaryshaker
Raf-1(truncated), Magnesium/ATP Cocktail, MEK1 unactive

[10] = system: Human colon cancer HT-29 transplantable tumor; assay: Human colon cancer HT-29 transplantable tumor in nude mice; conditions: for Relative tumor reproduction rate T/C (%): HT-29 in nude mice; for Relative tumor reproduction rate T/C (%) / RTV: 60 mg/kg ig 9 times; for RTV: relative tumor volume; for TV d0: tumor volume d0, 60 mg/kg; for TV d13: tumor volume d13, 60 mg/kg ig 9 times
[11] = system: human liver cancer cell bel-7402 transplantation tumor; assay type: in vivo; conditions: BALB/cA nude mice; 60 mg/kg, 6 times every week for 3 weeks; Sorafenib oral 60 mg/kg
In short: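 Female BALB/cA nude mice (35–40 days, 18–22 g) bearing Bel-7402 xenografts; 6 mice per treated group, 12 in saline controls. Compound dosed at 60 mg/kg, 6 times weekly for 3 weeks, followed by one week of observation; tumor inhibition rate scored against controls.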

[12] = system: renal carcinoma cell line GCR-1 transplanted tumor; assay type: in vivo, BALB/cA nude mice; conditions: BALB/cA nude mice; 60 mg/kg, 6 times every week for 3 weeks; Sorafenib oral 60 mg/kg
In short: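 Female BALB/cA nude mice (18–22 g) bearing GCR-1 renal carcinoma xenografts, 6 per treated group, 12 saline controls. Drug given at 60 mg/kg, 6 times weekly for 3 weeks, then one week of observation; tumor inhibition rate reported.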

[13] = Final concentration 1 x 1.0*10^(−5) mol/L

Row | SMILES | Inhibition rate, adhesion ability of human lung cancer cell A549 [1] [%] | Tumor weight x ± SD ([2]; 60 mg/kg ig for 9 days) [g] | Tumor growth inhibition rate (%) [2] [%] | Inhibition rate, lumen formation ability of HUVEC [3] [%] | Relative tumor reproduction rate T/C (%) on human lung cancer A549 transplantation tumor in nude mice [4] [%] | Inhibition rate, 95D cell strain migration [6] [%] | Inhibition rate, growth of HUVEC cell [7] [%] | Inhibition rate, growth of human lung cancer cell A549 [8, 13] [%] | Inhibition rate % on raf kinase [9] [%] | Relative tumor reproduction rate T/C (%) ([10]; 60 mg/kg) | RTV [10] | TV d0 [10] | TV d13 [10] | Relative tumor reproduction rate T/C (%) on human liver cancer cell bel-7402 transplantation tumor model in nude mice [11] [%] | Relative tumor reproduction rate T/C (%) on human renal carcinoma GCR-1 cell transplanted tumor model in nude mice [12] [%] | Relative tumor reproduction rate T/C (%) [10] [%] | also measured
1 | CNC(=O)c1cc(Oc2ccc(NC(=O)Nc3ccc(Br)c(C(F)(F)F)c3)cc2)c2cc(OC)ccc2n1 [Compound 3] | 79.66 | 0.75 ± 0.36 | 53.4 | 76.61 | 37.2 | 96.64 | 27.67 | 69.67 | 56.3 | 47.34 | 2.40 ± 0.67 | 133 ± 18 | 322 ± 129 | 30.1 | 31.3 |  | Weight (g) Start [5]: 18.0 ± 1.1 g
2 | CNC(=O)c1cc(Oc2ccc(NC(=O)Nc3ccc(F)c(C(F)(F)F)c3)cc2)c2cc(OC)ccc2n1 [Compound 2] | 75.15 | 0.87 ± 0.24 |  | 75.14 | 35.3 | 85.17 | 13.11 | 61.11 | 61.1 | 39.45 | 2.00 ± 0.41 | 133 ± 23 | 265 ± 100 | 35.4 | 23.2 |  | Tumor growth inhibition rate (%) ([2]; 60 mg/kg): 46.0% and 24.1%; Weight (g) Start ([2]; mouse body weight at start, 60 mg/kg ig): 18.9 ± 1.7 g; Weight (g) Final ([2]; mouse body weight final, 60 mg/kg ig for 9 days): 20.9 ± 2.3 g; Weight (g) d0 ([10]; nude mouse body weight d0, 60 mg/kg): 19.9 ± 0.8 g; Weight (g) d13 ([10]; nude mouse body weight d13, 60 mg/kg ig 9 times): 21.0 ± 0.8 g
3 | CCNC(=O)c1cc(Oc2ccc(NC(=O)Nc3ccc(Cl)c(OC)c3)c(OC)c2)c2ccc([N+](=O)[O-])cc2n1 [Compound 36, N-(4-chloro-3-methoxyphenyl)-N′-(2-methoxyl-4-(2-(N-ethylcarbamyl)-4-(7-nitryl-quinolinyl)oxy)phenyl)urea] | 74.50 |  | 55.1 | 64.50 | 37.9 | 84.59 | 12.45 |  | 81.2 |  |  |  |  | 37.9 | 25.9 | 41.5 | Inhibition rate, growth of human lung cancer cell A549 [8]: 72.45%
4 | CNC(=O)c1ncc(Oc2ccc(NC(=O)Nc3ccc(Br)c(C(F)(F)F)c3)cc2)c2ccc(N)cc12 [Compound 12, N-(4-bromo-3-(trifluoromethyl)phenyl)-N′-(4-(2-(N-methylaminoformoxyl)-4-(7-amino-isoquinolyl)oxy)phenyl)urea] | 62.30 |  | 45.7 | 52.37 | 36.3 | 66.79 | 12.31 | 42.31 | 12.1 |  |  |  |  | 31.6 | 20.5 | 80.5 | 
